The source made the active and inactive calls. How the calls were made is not given here.
Target: Metabotropic glutamate receptor 5 (Rattus norvegicus) (UniProt P31424)
Test: PubChem AID 651852
Settings: HEK293 rat mGluR5 membranes, radioligand competition binding

Metabotropic glutamate receptor 5 (Rattus norvegicus), sequence (P31424 whole entry, looked up): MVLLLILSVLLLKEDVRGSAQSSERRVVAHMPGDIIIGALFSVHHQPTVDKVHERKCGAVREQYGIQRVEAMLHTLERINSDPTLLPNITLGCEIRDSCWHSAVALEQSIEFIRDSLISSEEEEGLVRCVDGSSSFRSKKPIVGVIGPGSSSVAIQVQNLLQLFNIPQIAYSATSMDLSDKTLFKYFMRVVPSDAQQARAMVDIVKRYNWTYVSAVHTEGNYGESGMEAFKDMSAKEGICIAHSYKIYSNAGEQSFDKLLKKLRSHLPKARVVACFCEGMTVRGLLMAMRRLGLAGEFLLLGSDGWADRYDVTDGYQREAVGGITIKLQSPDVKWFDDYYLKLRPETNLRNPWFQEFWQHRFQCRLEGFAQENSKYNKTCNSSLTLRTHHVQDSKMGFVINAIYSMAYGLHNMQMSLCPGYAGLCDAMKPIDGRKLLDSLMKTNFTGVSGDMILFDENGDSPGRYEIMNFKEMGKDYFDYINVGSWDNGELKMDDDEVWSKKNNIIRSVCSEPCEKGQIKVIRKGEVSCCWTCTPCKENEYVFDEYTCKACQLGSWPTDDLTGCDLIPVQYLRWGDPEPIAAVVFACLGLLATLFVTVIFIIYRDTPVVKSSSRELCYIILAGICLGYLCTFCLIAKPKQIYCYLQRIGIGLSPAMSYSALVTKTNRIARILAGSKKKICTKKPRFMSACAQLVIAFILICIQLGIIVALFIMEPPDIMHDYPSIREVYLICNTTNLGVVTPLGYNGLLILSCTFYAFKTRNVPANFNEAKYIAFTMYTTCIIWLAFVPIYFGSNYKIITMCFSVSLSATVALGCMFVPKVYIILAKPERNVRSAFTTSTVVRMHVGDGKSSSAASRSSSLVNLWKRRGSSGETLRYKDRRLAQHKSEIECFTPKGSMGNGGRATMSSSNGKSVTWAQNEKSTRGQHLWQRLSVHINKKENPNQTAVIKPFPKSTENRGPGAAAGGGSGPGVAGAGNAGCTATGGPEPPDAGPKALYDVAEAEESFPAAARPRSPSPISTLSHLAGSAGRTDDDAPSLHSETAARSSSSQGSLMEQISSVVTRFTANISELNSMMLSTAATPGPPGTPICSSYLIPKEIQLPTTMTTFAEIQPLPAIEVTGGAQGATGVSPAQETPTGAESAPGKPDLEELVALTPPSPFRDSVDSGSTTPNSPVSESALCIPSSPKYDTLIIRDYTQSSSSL

Row | IC50 | SMILES
1 | > 30 µM (inactive) | O=S(=O)(c1ccc(C#Cc2cccc(F)c2)cc1)N1CCOCC1
2 | > 30 µM (inactive) | CS(=O)(=O)N(CC(=O)NCC1CC1)c1cc(C(F)(F)F)ccc1Cl
3 | > 30 µM (inactive) | O=S(=O)(c1ccc(F)cc1)N1CCCC(c2nc(-c3ccc(F)cc3)no2)C1 (stereo not drawn)
